Measured values from BindingDB's records for doi:10.1016/s0960-894x(02)00489-4 (University of Antwerp (Uia), 2002).
Where a SMILES comes first, the peptide text is derived from it.

Target: T1, Glutathionylspermidine synthase (Crithidia fasciculata, UniProt P90518)
T1 sequence (P90518 whole entry): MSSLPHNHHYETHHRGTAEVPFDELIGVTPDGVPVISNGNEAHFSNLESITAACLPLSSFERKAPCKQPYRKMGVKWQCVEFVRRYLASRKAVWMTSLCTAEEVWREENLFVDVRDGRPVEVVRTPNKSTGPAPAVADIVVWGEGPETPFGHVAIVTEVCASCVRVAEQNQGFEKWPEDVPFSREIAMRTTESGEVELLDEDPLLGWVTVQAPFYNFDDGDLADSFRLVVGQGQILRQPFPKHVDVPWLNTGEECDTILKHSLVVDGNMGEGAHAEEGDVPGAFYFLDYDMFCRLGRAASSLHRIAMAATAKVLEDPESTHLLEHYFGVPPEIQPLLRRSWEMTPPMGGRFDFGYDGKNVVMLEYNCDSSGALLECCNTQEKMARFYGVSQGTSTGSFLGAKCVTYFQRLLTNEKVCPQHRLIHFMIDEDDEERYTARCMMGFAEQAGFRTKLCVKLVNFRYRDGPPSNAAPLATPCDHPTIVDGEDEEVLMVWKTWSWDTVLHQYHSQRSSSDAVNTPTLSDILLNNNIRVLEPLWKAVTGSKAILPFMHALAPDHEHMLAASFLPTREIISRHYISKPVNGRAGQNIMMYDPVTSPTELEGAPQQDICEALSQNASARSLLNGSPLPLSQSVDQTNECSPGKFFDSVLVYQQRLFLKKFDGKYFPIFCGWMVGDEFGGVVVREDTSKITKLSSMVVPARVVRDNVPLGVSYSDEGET
Assay: Inhibitory activity against amidase free Glutathionylspermidine Synthetase mutant (C79A)

SMILES: CC(C)C[C@H](NC(=O)CC[C@H](N)C(=O)O)C(=O)NCC(N)=O [2-Amino-4-[1-(carbamoylmethyl-carbamoyl)-3-methyl-butylcarbamoyl]-butyric acid] (HELM PEPTIDE1{[gGlu].L.G.[am]}$$$$V2.0)
- IC50: > 2000 nM
